Results as given in patent US8324245B2, “Quinoline derivative and quinazoline derivative inhibiting self-phosphorylation of hepatocytus proliferator receptor, and medicinal composition containing the same” (Kyowa Hakko Kirin Co., Ltd., priority 2001, dated 2012).

target: T1, met (HGF receptor) in human gastric cancer cells MKN45 (Homo sapiens, UniProt P08581); assay: Inhibitory activity against met-autophosphorylation using ELISA method (2), MKN45 cells, HGF-independent; format: cell-based
T1 construct: endogenous in cells; host or cells: MKN45 human gastric cancer cells
T1 sequence (P08581 25-1390): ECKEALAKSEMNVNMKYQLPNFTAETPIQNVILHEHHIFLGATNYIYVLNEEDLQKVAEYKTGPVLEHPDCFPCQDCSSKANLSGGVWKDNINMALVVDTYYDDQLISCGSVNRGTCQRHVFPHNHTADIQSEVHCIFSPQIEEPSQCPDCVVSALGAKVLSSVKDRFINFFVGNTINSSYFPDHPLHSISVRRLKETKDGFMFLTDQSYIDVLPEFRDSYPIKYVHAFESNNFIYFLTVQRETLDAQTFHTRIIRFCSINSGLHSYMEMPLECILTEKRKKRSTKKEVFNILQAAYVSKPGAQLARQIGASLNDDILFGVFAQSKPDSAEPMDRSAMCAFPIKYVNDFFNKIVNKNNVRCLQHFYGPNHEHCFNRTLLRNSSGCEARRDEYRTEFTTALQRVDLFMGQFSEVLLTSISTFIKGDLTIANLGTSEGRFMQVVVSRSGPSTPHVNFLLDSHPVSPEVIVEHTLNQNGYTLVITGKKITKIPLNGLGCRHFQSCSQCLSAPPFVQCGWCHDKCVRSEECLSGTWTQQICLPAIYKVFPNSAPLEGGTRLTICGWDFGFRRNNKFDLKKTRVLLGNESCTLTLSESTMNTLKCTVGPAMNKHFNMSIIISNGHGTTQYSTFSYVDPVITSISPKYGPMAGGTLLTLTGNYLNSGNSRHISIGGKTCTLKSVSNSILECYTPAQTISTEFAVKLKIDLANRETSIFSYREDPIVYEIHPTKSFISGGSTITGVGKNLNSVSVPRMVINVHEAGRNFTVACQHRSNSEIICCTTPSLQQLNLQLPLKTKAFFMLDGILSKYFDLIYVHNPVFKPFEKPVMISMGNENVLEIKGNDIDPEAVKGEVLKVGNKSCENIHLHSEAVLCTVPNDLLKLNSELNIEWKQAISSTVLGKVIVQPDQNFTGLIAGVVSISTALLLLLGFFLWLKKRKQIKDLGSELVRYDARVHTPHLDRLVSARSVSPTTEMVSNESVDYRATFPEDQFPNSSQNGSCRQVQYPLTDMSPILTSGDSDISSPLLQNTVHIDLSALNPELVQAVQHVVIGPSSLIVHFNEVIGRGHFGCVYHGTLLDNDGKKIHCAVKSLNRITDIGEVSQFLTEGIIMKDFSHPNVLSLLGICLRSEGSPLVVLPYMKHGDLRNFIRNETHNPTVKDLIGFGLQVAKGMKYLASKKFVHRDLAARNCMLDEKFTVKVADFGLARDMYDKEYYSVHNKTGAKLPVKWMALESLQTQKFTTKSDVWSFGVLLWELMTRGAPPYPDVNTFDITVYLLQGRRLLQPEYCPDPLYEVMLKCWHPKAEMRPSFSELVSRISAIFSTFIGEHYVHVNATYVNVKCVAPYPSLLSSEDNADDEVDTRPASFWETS
Experimental: Cells were cultured with RPMI medium containing 0.1% fetal calf serum in 96-well flat-bottom plate in an amount of 3×10^4 per well, and were incubated at 37° C. overnight. The medium was then replaced by a fresh RPMI medium containing 0.1% fetal calf serum. A solution of the test compound in dimethyl sulfoxide was added to each well, and the incuvation was continued at 37° C. for additional one hr. The medium was removed, the cells were washed with phosphate buffered saline (pH 7.4), and 50 μl of a lysis buffer (20 mM HEPES (pH 7.4), 150 mM NaCl, 0.2% Triton X-100, 10% glycerol, 5 mM sodium orthovanadylate, 5 mM disodium ethylenediaminetetraacetate, and 2 mM Na4P2O7) was then added thereto. The mixture was shaken at 4° C. for 2 hr to prepare a cell extract.
Separately, phosphate buffered saline (50 μl, pH 7.4) containing 5 μg/ml of anti-phospho-tyrosine antibody (PY20; purchased from Transduction Laboratories) was added to a microplate for ELISA (Maxisorp; purchased from NUNC), followed by gentle agitation at 4° C. overnight to coat the surface of the wells with the antibody. After washing of the plate, 300 μl of a blocking solution was added, followed by gentle agitation at room temperature for 2 hr to perform blocking. After washing, the whole quantity of the cell extract was transferred to the wells, and the plate was then allowed to stand at 4° C. overnight. After washing, an anti-HGF receptor antibody (h-Met (C-12), purchased from Santa Cruz Biotechnology) was allowed to react at room temperature for one hr, and, after washing, a peroxidase-labeled anti-rabbit Ig antibody (purchased from Amersham) was allowed to react at room temperature for one hr. After washing, a chromophoric substrate for peroxidase (purchased from Sumitomo Bakelite Co., Ltd.) was added thereto to initiate a reaction. After a suitable level of color development, a reaction termination solution was added to stop the reaction, and the absorbance at 450 nm was measured with a microplate reader.

Row | IC50 | SMILES
1 | 126 nM | COc1cc2nccc(Oc3ccc(NC(=O)NC(=O)Cc4ccccc4F)c(F)c3)c2cc1OC [Example 26, 1-[4-(6,7-dimethoxyquinolin-4-yloxy)-2-fluoro-phenyl]-3-[2-(2-fluorophenyl)acetyl]urea]
2 | 27.7 nM | COc1cc2nccc(Oc3ccc(NC(=S)NC(=O)Cc4ccccc4F)cc3F)c2cc1OC [Example 81, 1-[4-(6,7-dimethoxyquinolin-4-yloxy)-3-fluoro-phenyl]-3-[2-(2-fluorophenyl)acetyl]thiourea]
3 | 25.1 nM | COc1cc2c(Oc3ccc(NC(=S)NC(=O)Cc4ccccc4F)cc3F)ccnc2cc1OCCN1CCOCC1 [Example 278, 1-{3-Fluoro-4-[6-methoxy-7-(2-morpholin-4-yl-ethoxy)-quinolin-4-yloxy]-phenyl}-3-[2-(2-fluoro-phenyl)-acetyl]-thiourea]
4 | 322 nM | COc1cc2nccc(Oc3ccc(NC(=S)NC(=O)Cc4cc(F)cc(F)c4)c(F)c3)c2cc1OC [Example 196, 1-[2-(3,5-difluorophenyl)acetyl]-3-[4-(6,7-dimethoxyquinolin-4-yloxy)-2-fluorophenyl]thiourea]
5 | 394 nM | COc1cc2nccc(Oc3ccc(NC(=O)C(C)(C)C(=O)Nc4ccccc4)cc3)c2cc1OC [Example 228, N-[4-(6,7-dimethoxyquinolin-4-yloxy)phenyl]-2,2-dimethyl-N′-phenylmalonamide]
6 | 340 nM | COc1cc2nccc(Oc3ccc(NC(=O)NC(=O)Nc4ncc(C)cc4Br)cc3)c2cc1OC [Example 230, N-(3-bromo-5-methyl-2-pyridyl)-({[4-(6,7-dimethoxyquinolin-4-yloxy)anilino]carbonyl}amino)-methanamide]
7 | 495 nM | CCOCCC(=O)NC(=S)Nc1ccc(Oc2ccnc3cc(OC)c(OC)cc23)c(F)c1 [Example 165, 1-[4-(6,7-dimethoxyquinolin-4-yloxy)-3-fluorophenyl]-3-(3-ethoxypropionyl)thiourea]
8 | 260 nM | COc1cc2nccc(Oc3ccc(NC(=O)NC(=O)Nc4ccccc4Oc4ccccc4)cc3)c2cc1OC [Example 255, N-(2-phenoxyphenyl)-({[4-(6,7-dimethoxy-quinolin-4-yloxy)anilino]carbonyl}amino)methanamide]
9 | 148 nM | COc1cc2nccc(Oc3ccc(NC(=S)NC(=O)Cc4ccc(C)cc4)c(F)c3)c2cc1OC [Example 92, 1-[4-(6,7-dimethoxyquinolin-4-yloxy)-2-fluoro-phenyl]-3-(2-p-tolylacetyl)thiourea]
10 | 58.4 nM | COc1cc2nccc(Oc3ccc(NC(=O)NC(=O)Cc4cccc(F)c4)cc3F)c2cc1OC [Example 37, 1-[4-(6,7-dimethoxyquinolin-4-yloxy)-3-fluoro-phenyl]-3-[2-(3-fluorophenyl)acetyl]urea]
11 | 322 nM | COc1cc2nccc(Oc3ccc(NC(=O)NC(=O)Nc4ncccc4C)cc3)c2cc1OC [Example 233, N-(3-methyl-2-pyridyl)-({[4-(6,7-dimethoxy-quinolin-4-yloxy)anilino]carbonyl}amino)methanamide]
12 | 27.9 nM | COc1cc2nccc(Oc3ccc(NC(=S)NC(=O)Cc4ccc(F)cc4)c(F)c3)c2cc1OC [Example 72, 1-[4-(6,7-dimethoxyquinolin-4-yloxy)-2-fluoro-phenyl]-3-[2-(4-fluorophenyl)acetyl]thiourea]
13 | 104 nM | COc1cc2nccc(Oc3ccc(NC(=O)NC(=O)Cc4ccsc4)c(F)c3)c2cc1OC [Example 19, 1-[4-(6,7-dimethoxyquinolin-4-yloxy)-2-fluoro-phenyl]-3-(2-thiophen-3-ylacetyl)urea]
14 | 30.2 nM | COc1cc2nccc(Oc3ccc(NC(=S)NC(=O)Cc4ccccc4F)c(F)c3)c2cc1OC [Example 80, 1-[4-(6,7-dimethoxyquinolin-4-yloxy)-2-fluoro-phenyl]-3-[2-(2-fluorophenyl)acetyl]thiourea]
15 | 198 nM | COc1cc2nccc(Oc3ccc(NC(=O)NC(=O)Cc4cccc(F)c4)c(F)c3)c2cc1OC [Example 36, 1-[4-(6,7-dimethoxyquinolin-4-yloxy)-2-fluoro-phenyl]-3-[2-(3-fluorophenyl)acetyl]urea]
16 | 222 nM | COc1cc2nccc(Oc3ccc(NC(=S)NC(=O)Cc4cccc(Cl)c4)cc3F)c2cc1OC [Example 173, 1-[2-(3-chlorophenyl)acetyl]-3-[4-(6,7-dimethoxyquinolin-4-yloxy)-3-fluorophenyl]thiourea]
17 | 150 nM | COc1cc2nccc(Oc3ccc(NC(=O)NC(=O)Cc4ccccc4)cc3Cl)c2cc1OC [Example 18, 1-[3-chloro-4-(6,7-dimethoxyquinolin-4-yloxy)-phenyl]-3-phenylacetylurea]
18 | 256 nM | COc1cc2nccc(Oc3ccc(NC(=S)NC(=O)Cc4ccccc4Cl)c(F)c3)c2cc1OC [Example 182, 1-[2-(2-chlorophenyl)acetyl]-3-[4-(6,7-dimethoxyquinolin-4-yloxy)-2-fluorophenyl]thiourea]
19 | 955 nM | COc1cc2nccc(Oc3ccc(NC(=S)NC(=O)Cc4cccc(C)c4)c(F)c3)c2cc1OC [Example 175, 1-[4-(6,7-dimethoxyquinolin-4-yloxy)-2-fluorophenyl]-3-(2-m-tolylacetyl)thiourea]
20 | 44.4 nM | COc1cc2nccc(Oc3ccc(NC(=O)CC(=O)NC4CCCCCC4)cc3)c2cc1OC [Example 101, N-cycloheptyl-N′-[4-(6,7-dimethoxyquinolin-4-yloxy)phenyl]malonamide]
21 | 2370 nM | COc1cc2nccc(Oc3ccc(NC(=O)NC(=O)CN4CCSCC4)cc3Cl)c2cc1OC [Example 131, 1-[3-chloro-4-(6,7-dimethoxyquinolin-4-yloxy)phenyl]-3-(2-thiomorpholin-4-ylacetyl)urea]
22 | 221 nM | COc1cc2nccc(Oc3ccc(NC(=S)NC(=O)Cc4cccc(C)c4)cc3F)c2cc1OC [Example 176, 1-[4-(6,7-dimethoxyquinolin-4-yloxy)-3-fluorophenyl]-3-(2-m-tolylacetyl)thiourea]
23 | 261 nM | COc1cc2nccc(Oc3ccc(NC(=S)NC(=O)CCCC(C)C)cc3F)c2cc1OC [Example 179, 1-[4-(6,7-dimethoxyquinolin-4-yloxy)-3-fluorophenyl]-3-(5-methyl-hexanoyl)thiourea]
24 | 243 nM | COc1cccc(CC(=O)NC(=S)Nc2ccc(Oc3ccnc4cc(OC)c(OC)cc34)c(F)c2)c1 [Example 181, 1-[4-(6,7-dimethoxyquinolin-4-yloxy)-3-fluorophenyl]-3-[2-(3-methoxyphenyl)acetyl]thiourea]
25 | 30.7 nM | COc1cc2nccc(Oc3ccc(NC(=S)NC(=O)Cc4ccc(F)cc4F)cc3F)c2cc1OC [Example 94, 1-[2-(2,4-difluorophenyl)acetyl]-3-[4-(6,7-dimethoxyquinolin-4-yloxy)-3-fluorophenyl]thiourea]
26 | 29.1 nM | COc1cc(Oc2ccnc3cc(OC)c(OC)cc23)ccc1NC(=O)NC(=O)Cc1ccc(F)cc1 [Example 38, 1-[4-(6,7-dimethoxyquinolin-4-yloxy)-2-methoxyphenyl]-3-[2-(4-fluorophenyl)acetyl]urea]
27 | 585 nM | CCOCCC(=O)NC(=S)Nc1ccc(Oc2ccnc3cc(OC)c(OC)cc23)c(Cl)c1 [Example 159, 1-[3-chloro-4-(6,7-dimethoxyquinolin-4-yloxy)phenyl]-3-(3-ethoxypropionyl)thiourea]
28 | 2910 nM | COc1cc2nccc(Oc3ccc(NC(=O)NC(=O)Nc4ccccc4Cc4ccccc4)cc3)c2cc1OC [Example 246, N-(2-benzylphenyl)-({[4-(6,7-dimethoxy-quinolin-4-yloxy)anilino]carbonyl}amino)methanamide]
